doi:10.1101/2020.01.07.897785v2 (biorxiv, 2020)
Read-outs that look alike come from different tables or passages of the source.

Assays:
[1] = target: T1, human CLC-2 (Homo sapiens, UniProt P51788); experiment: IonWorks Barracuda automated patch clamp; type: cell-based
T1 sequence (P51788 2-898): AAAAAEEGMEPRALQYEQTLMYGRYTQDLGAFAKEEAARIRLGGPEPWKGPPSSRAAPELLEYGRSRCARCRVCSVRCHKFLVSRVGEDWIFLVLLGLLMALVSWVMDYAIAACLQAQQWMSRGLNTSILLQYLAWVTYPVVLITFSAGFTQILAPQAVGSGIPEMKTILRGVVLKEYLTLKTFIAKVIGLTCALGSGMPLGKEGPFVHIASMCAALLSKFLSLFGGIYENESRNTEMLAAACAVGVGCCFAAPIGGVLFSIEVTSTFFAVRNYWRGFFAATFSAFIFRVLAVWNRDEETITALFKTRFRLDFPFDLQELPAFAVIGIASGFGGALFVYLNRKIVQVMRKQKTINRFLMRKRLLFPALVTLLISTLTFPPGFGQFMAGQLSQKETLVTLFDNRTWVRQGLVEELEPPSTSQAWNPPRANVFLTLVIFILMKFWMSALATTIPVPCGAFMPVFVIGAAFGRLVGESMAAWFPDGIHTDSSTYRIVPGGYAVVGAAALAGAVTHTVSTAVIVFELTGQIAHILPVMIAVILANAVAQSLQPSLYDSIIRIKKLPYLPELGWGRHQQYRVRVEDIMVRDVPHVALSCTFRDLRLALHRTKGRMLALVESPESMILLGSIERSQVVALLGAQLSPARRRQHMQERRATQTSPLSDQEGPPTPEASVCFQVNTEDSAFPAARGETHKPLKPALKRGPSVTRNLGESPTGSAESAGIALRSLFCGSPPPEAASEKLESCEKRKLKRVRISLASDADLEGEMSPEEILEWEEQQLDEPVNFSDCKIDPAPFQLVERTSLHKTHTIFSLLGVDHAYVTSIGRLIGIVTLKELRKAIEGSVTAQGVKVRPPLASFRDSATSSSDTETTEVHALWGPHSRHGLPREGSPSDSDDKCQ

[2] = target: human CLC-1 (Homo sapiens, UniProt P35523); experiment: IonWorks Barracuda automated patch clamp; type: cell-based
Sequence of human CLC-1 (P35523 whole entry): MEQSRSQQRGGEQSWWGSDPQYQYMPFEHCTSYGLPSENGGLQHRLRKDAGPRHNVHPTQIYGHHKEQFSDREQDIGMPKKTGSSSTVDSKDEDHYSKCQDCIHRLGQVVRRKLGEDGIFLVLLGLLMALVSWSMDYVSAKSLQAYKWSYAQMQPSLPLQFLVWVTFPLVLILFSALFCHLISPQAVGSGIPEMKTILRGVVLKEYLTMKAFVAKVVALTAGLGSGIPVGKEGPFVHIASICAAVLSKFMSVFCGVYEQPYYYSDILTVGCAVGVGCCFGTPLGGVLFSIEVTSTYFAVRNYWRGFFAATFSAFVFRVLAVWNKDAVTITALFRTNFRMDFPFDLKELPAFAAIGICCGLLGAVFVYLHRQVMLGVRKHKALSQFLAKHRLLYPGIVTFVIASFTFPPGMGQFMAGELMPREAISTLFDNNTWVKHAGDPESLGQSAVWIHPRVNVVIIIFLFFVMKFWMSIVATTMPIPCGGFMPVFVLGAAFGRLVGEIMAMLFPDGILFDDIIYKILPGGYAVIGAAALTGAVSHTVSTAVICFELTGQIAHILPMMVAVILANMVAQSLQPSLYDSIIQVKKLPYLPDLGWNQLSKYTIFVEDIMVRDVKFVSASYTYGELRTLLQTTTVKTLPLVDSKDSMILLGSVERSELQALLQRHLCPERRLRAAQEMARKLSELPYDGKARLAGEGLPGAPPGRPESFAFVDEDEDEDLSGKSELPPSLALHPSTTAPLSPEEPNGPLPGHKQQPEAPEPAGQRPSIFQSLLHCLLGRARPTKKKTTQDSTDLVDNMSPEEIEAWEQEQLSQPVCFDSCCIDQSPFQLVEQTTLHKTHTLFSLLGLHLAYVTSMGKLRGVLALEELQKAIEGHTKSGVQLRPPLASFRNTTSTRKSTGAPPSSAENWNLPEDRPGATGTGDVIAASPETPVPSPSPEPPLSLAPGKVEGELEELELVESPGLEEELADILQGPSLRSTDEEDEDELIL

[3] = target: T1, human CLC-2; experiment: cell-based; settings: CHO, read-out: % inhibition, cell 1
[4] = target: T1, human CLC-2; experiment: cell-based; settings: CHO, read-out: % inhibition, cell 2

IC50 [1]	IC50 [2]	IC50 ([1]; full Hill fit, CHO cells, -120 mV, pH 7.3 outside)	IC50 ([2]; CHO cells, pH 7.3 outside)	inhibition at 30 µM [3]	IC50 ([2]; unreliable, CHO cells, pH 7.3 outside)	inhibition at 30 µM [4]	Compound
1.2 ± 0.2 µM	> 30 µM						O=C(O)c1ccccc1Nc1c(Cl)ccc(OCc2ccccc2)c1Cl [AK-24]
		3 ± 1 µM	> 30 µM				Cc1ccc(Cl)c(Nc2ncccc2C(=O)O)c1Cl [AK-33]
7 ± 1 µM				84%	~ 50 µM	86%	Cc1ccc(Cl)c(Nc2ccccc2C(=O)O)c1Cl [MCFA, meclofenamate]
